{"source": "patent US20050142065A1", "about": "“Screening method” (priority 2002, published 2005)", "key": {"Wistar fatty rats": {"tested_on": "Wistar fatty rats", "experiment": "Glycated hemoglobin value in Wistar fatty rats given the compound in powder diet", "type": "in vivo, rat", "details": "for decrease in the glycated hemoglobin value, corrected for control group: minus decrease in control a group; for decrease in glycated hemoglobin value (before minus after administration): male Wistar fatty rats", "description": "In this Experimental Example, the blood of the rats were taken in a microtube finally containing 0.01M EDTA as an anticoagulant agent, for the measurement of blood glucose level and glycated hemoglobin value. The glycated hemoglobin value was measured by high performance liquid chromatograph (HLC-723GhbVA1c2.2 (product name, manufactured by Tosoh Corporation)) using an aminophenyl boronate affinity column and an absorbance (415 nm) detection method. For the mobile phase, eluents A, B (manufactured by Tosoh Corporation) were used, and the conditions set for chromatography, such as column temperature, flow rate and the like, followed the standard conditions set for this chromatography. […] The glycated hemoglobin value was measured at 4 and 5 weeks after the start of the experiment."}, "[1]": {"tested_on": "Diabetes mellitus patients", "experiment": "Hemoglobin A1c value in diabetes mellitus patients after oral administration", "type": "in vivo, human", "details": "30 mg daily dose", "procedure": "Diabetes mellitus patients (134 patients, age 57.6±11.5 years old, fasting blood glucose level 183.2±35.2 mg/dl, hemoglobin A1c value 9.27±1.60%) were divided into 2 groups."}}, "note": "Where a name gives a salt, the structure may show the parent alone."}
{"smiles": "CCc1ccc(CCOc2ccc(CC3SC(=O)NC3=O)cc2)nc1", "note": "(centres unmarked) [pioglitazone hydrochloride]", "values": [{"measurement": "decrease in the glycated hemoglobin value, corrected for control group", "setting": "Wistar fatty rats; b group, 0.8 mg/kg body weight daily in diet, 4 weeks", "result": 1.1, "unit": "%"}, {"measurement": "decrease in the glycated hemoglobin value, corrected for control group", "setting": "Wistar fatty rats; b group, 0.8 mg/kg body weight daily in diet, 5 weeks", "result": 1.3, "unit": "%"}, {"measurement": "decrease in glycated hemoglobin value (before minus after administration)", "setting": "Wistar fatty rats; b group, 0.8 mg/kg body weight daily in diet, 4 weeks after start of administration", "result": 1.4, "unit": "%"}, {"measurement": "decrease in glycated hemoglobin value (before minus after administration)", "setting": "Wistar fatty rats; b group, 0.8 mg/kg body weight daily in diet, 5 weeks after start of administration", "result": 1.9, "unit": "%"}, {"measurement": "decrease in the glycated hemoglobin value, corrected for control group", "setting": "Wistar fatty rats; c group, 2.4 mg/kg body weight daily in diet, 4 weeks", "result": 2.5, "unit": "%"}, {"measurement": "decrease in the glycated hemoglobin value, corrected for control group", "setting": "Wistar fatty rats; c group, 2.4 mg/kg body weight daily in diet, 5 weeks", "result": 2.7, "unit": "%"}, {"measurement": "decrease in glycated hemoglobin value (before minus after administration)", "setting": "Wistar fatty rats; c group, 2.4 mg/kg body weight daily in diet, 4 weeks after start of administration", "result": 2.8, "unit": "%"}, {"measurement": "decrease in glycated hemoglobin value (before minus after administration)", "setting": "Wistar fatty rats; c group, 2.4 mg/kg body weight daily in diet, 5 weeks after start of administration", "result": 3.3, "unit": "%"}, {"measurement": "decrease in the hemoglobin A1c value", "setting": "[1]; 8 weeks after start of administration", "result": 0.70, "unit": "%"}, {"measurement": "decrease in hemoglobin A1c value, corrected for placebo group", "setting": "[1]; 8 weeks, minus decrease in placebo group", "result": 0.68, "unit": "%"}, {"measurement": "decrease in the hemoglobin A1c value", "setting": "[1]; 12 weeks after start of administration", "result": 1.08, "unit": "%"}]}
